pIC50: −log10 of the molar value.

Target in one assay: not listed separately
Kind of assay: Inhibition of FTase by SPA. Details: species or system Homo sapiens.
As for `Cn1cncc1C(N)(c1ccc2c(c1)c(-c1cccc(Cl)c1)nc1nnnn12)c1ccc(Cl)s1` (stereo not drawn), the pIC50 (usually the negative decadic logarithm of the IC50, by convention in mol/L) is greater than 7.00. Take `CCc1nccn1C(c1ccc2c(c1)c(-c1cccc(Cl)c1)nc1nnnn12)c1cncn1C` (stereo not drawn): the pIC50 was 8.30. Same read-out and setting: in the case of `Cn1cncc1C(c1ccc2c(c1)c(-c1cccc(Cl)c1)nc1nnnn12)n1ccnc1-c1cccc(C#N)c1` (stereo not drawn) it was 9.00; in that of `Cn1cncc1C(N)(c1ccc(Cl)cc1)c1ccc2c(c1)c(-c1cccc(Cl)c1)cc1nnnn12` (stereo not drawn), 8.46. On the same count and under the same terms, in the case of `Cn1cncc1[C@](N)(c1ccc(Cl)cc1)c1ccc2c(c1)c(-c1cccc(Cl)c1)cc(=O)n2C` [(S)-TIPIFARNIB] it was 9.05. Still for that read-out and setting: for `Cn1cncc1C(c1ccc2c(c1)c(-c1cccc(Cl)c1)nc1nnnn12)n1ccnc1-c1ccc(F)cc1` (stereo not drawn) the value was 8.40. For the compound `OC(c1ccc2c(c1)c(-c1cccc(Cl)c1)cc1nnnn12)c1cncn1Cc1ccc(Cl)cc1` (stereo not drawn), the pIC50 is less than 7.00.

Regarding `Cn1cncc1C(c1ccc2c(c1)c(-c1cccc(Cl)c1)nc1nnnn12)n1ccnc1-c1ccccc1` (stereo not drawn), the pIC50 is 9.00. The same measure, in the same setting: for `Cn1cncc1C(O)(c1ccc2c(c1)c(-c1cccc(Cl)c1)nc1nnnn12)c1ccc(Cl)s1` (stereo not drawn) the value was 7.80; for `Cn1cncc1C(N)(c1ccc(Cl)cc1)c1ccc2c(c1)c(-c1cccc(Cl)c1)nc1nnnn12` (stereo not drawn), 8.46. On the same count and under the same terms, in the case of `N#Cc1ccc(Cn2cncc2C(O)c2ccc3c(c2)c(-c2cccc(Cl)c2)cc2nnnn23)cc1` (stereo not drawn) it was 7.96.

Another assay is filed under the species Homo sapiens. Kind of assay: Inhibition of FTase at 100 nM by SPA.
For `Cn1cncc1C(N)(c1ccc2c(c1)c(-c1cccc(Cl)c1)nc1nnnn12)c1ccc(Cl)s1` (stereo not drawn), the inhibition (commonly the relative decrease from the control value, in per cent) worked out at 69%.

Regarding `OC(c1ccc2c(c1)c(-c1cccc(Cl)c1)cc1nnnn12)c1cncn1Cc1ccc(Cl)cc1` (stereo not drawn), the inhibition was found to be 32%.

Values taken from ChEMBL document CHEMBL1147213, “Impact on farnesyltransferase inhibition of 4-chlorophenyl moiety replacement in the Zarnestra series” (Eur J Med Chem, 2007).
